Counter-ions that a name gives are not always drawn.
How the values were obtained:
human PHD2 = biological target: T1, human PHD2 (Homo sapiens, UniProt Q9GZT9); test: Measurement of human PHD inhibitory activity (TR-FRET, hydroxylation of HIF-1α partial peptide); type: biochemical; details: human PHD2 enzyme 1 nM, 25° C. 30 min, values consisting solely of numbers; read-out: IC50 (μM) in vitro, human PHD inhibitory activity
T1 construct: made in house; host or cells: Sf9 insect cells (baculovirus, pVL1393 vector)
T1 sequence (Q9GZT9 whole entry): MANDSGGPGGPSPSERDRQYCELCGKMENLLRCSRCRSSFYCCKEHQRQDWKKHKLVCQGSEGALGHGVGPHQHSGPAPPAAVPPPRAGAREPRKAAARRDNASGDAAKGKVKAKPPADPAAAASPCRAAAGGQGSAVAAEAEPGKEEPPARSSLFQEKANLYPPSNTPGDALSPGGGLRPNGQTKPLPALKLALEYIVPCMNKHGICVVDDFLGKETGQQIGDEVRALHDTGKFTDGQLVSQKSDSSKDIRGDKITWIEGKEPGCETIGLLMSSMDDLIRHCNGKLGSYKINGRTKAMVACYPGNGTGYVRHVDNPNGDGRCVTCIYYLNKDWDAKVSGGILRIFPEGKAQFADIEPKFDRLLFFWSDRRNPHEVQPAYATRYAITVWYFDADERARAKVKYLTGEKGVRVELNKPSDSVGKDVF
Protocol: Human PHD2 was expressed in insect cell (Sf9 cell). […] The vector and baculovirus were cotransfected into Sf9, and human PHD2 expression baculovirus was isolated in Sf9. By using the virus, human PHD2-expressed cell was prepared. […] The cell lysate was flowed into a column filled with ANTI-FLAG M2 Affinity Gel Freezer Safe (SIGMA), washed, and the N-terminal FLAG-tag-added human PHD2 was eluted and collected.
VBC complex (VHL/Elongin B/Elongin C) was expressed in Escherichia coli (BL21(DE3)). […] After these expression vectors were transfected into Escherichia coli (BL21(DE3)), Escherichia coli was cultured at 37° C. in the medium containing IPTG. The collected Escherichia coli was disrupted by sonication and flowed into a column filled with Ni-NTA superflow (QIAGEN), washed, and the product was eluted and collected. The eluate was flowed into a column filled with Glutathione Sepharose 4B, washed, and the product was eluted and collected. […]
As for human PHD2 enzyme activity, hydroxylation of proline residue contained in the 19 residues of the partial peptide based on the sequence of HIF-1α as a substrate was measured by TR-FRET (Time-Resolved Fluorescence Resonance Energy Transfer) method.
A test compound and a substrate solution were added to a 96-well plate. The reaction was started by addition of a human PHD2 enzyme solution (final concentration 1 nM) to the reaction system. After incubation at 25° C. for 30 min, a stop solution containing EDTA was added, and a VBC complex solution containing europium (Eu) and Xlent was added, and the amount of hydroxylated proline residue was quantified by time-resolved fluorescence spectroscopy. The time-resolved fluorescence in each well was measured, and the human PHD inhibitory activity (%) of the test compound was calculated based on the values of enzyme non-addition well and test compound non-addition well.

[1] = tested on: human EPO production, Hep3B cells; test: Human EPO production activity in Hep3B cells (EPO-ELISA of culture supernatant); type: cell-based; details: for EC50: Homo sapiens, 24 hr incubation, values consisting solely of numbers, read-out: EC50 (μM) in vitro, human EPO production activity; for production activity (%) at 30 μM in vitro, human EPO: 24 hr, values containing %, relative to maximum production
Protocol: The activity of the test compound on human EPO production was measured using Hep3B (AMC) established from human liver-derived cell line.
Hep3B cells were cultured in Eagle-MEM medium containing 10% fetal bovine serum, and the test compound was diluted with dimethyl sulfoxide (DMSO).
Hep3B cells were cultured in a 96-well plate, and a test compound was added at each concentration 24 hr later. After incubation at 37° C. for 24 hr, the culture supernatant was collected. The concentration of human EPO produced in the culture supernatant was measured using a human EPO-ELISA kit (manufactured by StemCell Technologies, 01630) according to the manufacturer's explanation, and the human EPO production activity (%) of the test compound was calculated based on the maximum value of production under the above conditions and the value without addition of the test compound. […] In these Tables, the values consisting solely of numbers show EC50 (μM) and those containing % show human EPO production activity (%) at […].

| SMILES | IC50 (human PHD2) [µM] | EC50 [1] [µM] | production activity (%) at 30 μM in vitro, human EPO [1] [%] |
| --- | --- | --- | --- |
| O=C(O)CNC(=O)c1c(O)cc(CCC2CCCC2)n2ncnc12 [Example 60, {[5-(2-cyclopentylethyl)-7-hydroxy[1,2,4]triazolo[1,5-a]pyridine-8-carbonyl]amino} acetic acid hydrochloride] | 0.74 | 8.4 | – |
| O=C(O)CNC(=O)c1c(O)cc(CCc2ccccc2C(F)(F)F)c2ncnn12 [Example 100, ({6-hydroxy-8-[2-(2-trifluoromethyl phenyl)ethyl][1,2,4]triazolo[1,5-a]pyridine-5-carbonyl}amino) acetic acid hydrochloride] | 0.82 | 18 | – |
| O=C(O)CNC(=O)c1c(O)cc(CCc2ccc(C(F)(F)F)cc2)c2ncnn12 [Example 102, ({6-hydroxy-8-[2-(4-trifluoromethyl phenyl)ethyl] [1,2,4]triazolo[1,5-a]pyridine-5-carbonyl}amino) acetic acid hydrochloride] | 0.51 | 16 | – |
| CCCCc1c(Cl)c(O)c(C(=O)NCC(=O)O)c2ncnn12 [Example 6, [(5-butyl-6-chloro-7-hydroxy[1,2,4]triazolo[1,5-a]pyridine-8-carbonyl)amino]acetic acid hydrochloride] | 0.87 | 20.8 | – |
| O=C(O)CNC(=O)c1c(O)ccn2c(-c3ccccc3)nnc12 [Example 113, [(7-hydroxy-3-phenyl[1,2,4]triazolo[4,3-a]pyridine-8-carbonyl)amino] acetic acid] | 0.56 | – | 0 |
| CC(C)Cc1cc(O)c(C(=O)NCC(=O)O)c2ncnn12 [Example 43, [(7-hydroxy-5-isobutyl[1,2,4]triazolo[1,5-a]pyridine-8-carbonyl)amino]acetic acid] | 0.93 | 23.6 | – |
| O=C(O)CNC(=O)c1c(O)cc(-c2ccc(Cl)cc2)c2ncnn12 [Example 108, {[8-(4-chlorophenyl)-6-hydroxy[1,2,4]triazolo[1,5-a]pyridine-5-carbonyl]amino} acetic acid] | 0.16 | 8.9 | – |
| Cl.O=C(O)CNC(=O)c1c(O)cc(CCc2cccc(C(F)(F)F)c2)c2ncnn12 [Example 101, ({6-hydroxy-8-[2-(3-trifluoromethyl phenyl)ethyl] [1,2,4]triazolo[1,5-a]pyridine-5-carbonyl}amino) acetic acid hydrochloride] | 0.37 | – | 6 |
| O=C(O)CNC(=O)c1c(O)cc(-c2ccc(F)c(C(F)(F)F)c2)c2ncnn12 [Example 106, {[8-(4-fluoro-3-trifluoromethyl-phenyl)-6-hydroxy[1,2,4]triazolo[1,5-a]pyridine-5-carbonyl]amino} acetic acid hydrochloride] | 0.23 | 6 | – |
| O=C(O)CNC(=O)c1c(O)cc(-c2cc(C(F)(F)F)ccc2F)n2ncnc12 [Example 34, {[5-(2-fluoro-5-trifluoromethyl-phenyl)-7-hydroxy[1,2,4]triazolo[1,5-a]pyridine-8-carbonyl]amino}acetic acid hydrochloride] | 0.43 | 15 | – |
| C[C@H](NC(=O)c1c(O)cc(-c2cc(F)cc(F)c2)n2ncnc12)C(=O)O [Example 67, (S)-2-{[5-(3,5-difluorophenyl)-7-hydroxy[1,2,4]triazolo[1,5-a]pyridine-8-carbonyl]amino} propionic acid hydrochloride] | 0.9 | 14.3 | – |
| O=C(O)CNC(=O)c1c(O)cc(-c2cccc(C(F)(F)F)c2)n2ncnc12 [Example 33, {[7-hydroxy-5-(3-trifluoromethyl-phhenyl)[1,2,4]triazolo[1,5-a]pyridine-8-carbonyl]ammino}acetic acid hydrochloride] | 0.46 | 10.1 | – |
| O=C(O)CNC(=O)c1c(O)cc(-c2cc(F)cc(F)c2F)n2ncnc12 [Example 76, {[7-hydroxy-5-(2,3,5-trifluorophenyl) [1,2,4]triazolo[1,5-a]pyridine-8-carbonyl]amino} acetic acid hydrochloride] | 0.22 | 18 | – |

Reference: US8283465B2, “Triazolopyridine compound, and action thereof as prolyl hydroxylase inhibitor or erythropoietin production-inducing agent” (Japan Tobacco Inc., priority 2009, dated 2012)
